Experimental data reported in PubChem BioAssay (NCI).
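Values below derive from 48-hour exposures of cells grown in 96-well plates, with endpoints linearly interpolated between the two concentrations bracketing the appropriate inhibition level. Here, GI50 denotes the concentration required for 50% inhibition of growth. TGI: concentration producing complete growth inhibition.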

Key:
Test in all cases: NCI anticancer screen, dose series, 48 h
HCT-15 colon = system: HCT-15 colon
OVCAR-8 ovarian = system: OVCAR-8 ovarian
HL-60(TB) leukemia = system: HL-60(TB) leukemia
NCI-H522 lung = system: NCI-H522 lung
SW-620 colon = system: SW-620 colon
OVCAR-5 ovarian = system: OVCAR-5 ovarian
COLO 205 colon = system: COLO 205 colon
HS 578T breast = system: HS 578T breast
NCI-H226 lung = system: NCI-H226 lung
SNB-19 CNS = system: SNB-19 CNS

COc1cc(C2=Nc3c/c(=C\c4c(O)[nH]c5ccc(Cl)cc45)ccc3=N2)cc(OC)c1OC
GI50 (HCT-15 colon): 3.27 µM | TGI (HCT-15 colon): 11.6 µM | GI50 (OVCAR-8 ovarian): 1.95 µM | TGI (OVCAR-8 ovarian): 5.24 µM | GI50 (HL-60(TB) leukemia): 3.13 µM | TGI (HL-60(TB) leukemia): 14.6 µM | GI50 (NCI-H522 lung): 3.17 µM | TGI (NCI-H522 lung): 10.7 µM | GI50 (SW-620 colon): 1.98 µM | TGI (SW-620 colon): 4.41 µM | GI50 (OVCAR-5 ovarian): 12 µM | TGI (OVCAR-5 ovarian): 38.8 µM | GI50 (COLO 205 colon): 2.45 µM | TGI (COLO 205 colon): 7.27 µM | GI50 (HS 578T breast): 1.69 µM | TGI (HS 578T breast): 5.86 µM | GI50 (NCI-H226 lung): 10.3 µM | TGI (NCI-H226 lung): 29.7 µM | GI50 (SNB-19 CNS): 4.55 µM | TGI (SNB-19 CNS): 13.5 µM

S=C(Nc1ccc(-c2nc3ccccc3s2)cc1)Nc1ccccn1
GI50 (HCT-15 colon): 27.4 µM | TGI (HCT-15 colon): > 71.6 µM | GI50 (OVCAR-8 ovarian): 32.6 µM | TGI (OVCAR-8 ovarian): > 73.9 µM | GI50 (HL-60(TB) leukemia): 30.7 µM | TGI (HL-60(TB) leukemia): > 100 µM | GI50 (NCI-H522 lung): 24.7 µM | TGI (NCI-H522 lung): > 61.3 µM | GI50 (SW-620 colon): 40.1 µM | TGI (SW-620 colon): > 100 µM | GI50 (OVCAR-5 ovarian): > 52.8 µM | TGI (OVCAR-5 ovarian): > 81.4 µM | GI50 (COLO 205 colon): 18.9 µM | TGI (COLO 205 colon): 42.3 µM | GI50 (HS 578T breast): 21.5 µM | TGI (HS 578T breast): 59.2 µM | GI50 (NCI-H226 lung): 26.4 µM | TGI (NCI-H226 lung): > 76.2 µM | GI50 (SNB-19 CNS): 36.1 µM | TGI (SNB-19 CNS): > 100 µM

N#CC(NC12CC3CC(CC(C3)C1)C2)c1ccccc1 (stereo not given)
TGI (HCT-15 colon): > 100 µM | TGI (OVCAR-8 ovarian): > 100 µM | TGI (HL-60(TB) leukemia): > 100 µM | TGI (NCI-H522 lung): > 100 µM | TGI (SW-620 colon): > 100 µM | TGI (OVCAR-5 ovarian): > 100 µM | TGI (COLO 205 colon): > 100 µM | TGI (HS 578T breast): > 100 µM | TGI (NCI-H226 lung): > 100 µM | TGI (SNB-19 CNS): > 100 µM

Cc1nc(NC(=O)COc2cccc(/C=C3\COc4ccccc4C3=O)c2)sc1C
GI50 (HCT-15 colon): 2.04 µM | TGI (HCT-15 colon): 5.2 µM | GI50 (OVCAR-8 ovarian): 2.36 µM | TGI (OVCAR-8 ovarian): 5.78 µM | GI50 (HL-60(TB) leukemia): 2.8 µM | TGI (HL-60(TB) leukemia): > 29.9 µM | GI50 (NCI-H522 lung): 1.89 µM | TGI (NCI-H522 lung): 4.41 µM | GI50 (SW-620 colon): 1.08 µM | TGI (SW-620 colon): 2.39 µM | GI50 (OVCAR-5 ovarian): 1.94 µM | TGI (OVCAR-5 ovarian): 3.88 µM | GI50 (COLO 205 colon): 1.96 µM | TGI (COLO 205 colon): 3.88 µM | GI50 (HS 578T breast): 2.72 µM | TGI (HS 578T breast): 8.6 µM | GI50 (NCI-H226 lung): 3.32 µM | TGI (NCI-H226 lung): 9.66 µM | GI50 (SNB-19 CNS): 3.38 µM | TGI (SNB-19 CNS): 13.6 µM

C[C@@]12CCC[C@@](C)(C(=O)O)C1CC[C@]13C=C(CO)[C@](O)(CCC12)C3 (stereo not given in full)
GI50 (HCT-15 colon): > 100 µM | TGI (HCT-15 colon): > 100 µM | GI50 (OVCAR-8 ovarian): > 100 µM | TGI (OVCAR-8 ovarian): > 100 µM | GI50 (HL-60(TB) leukemia): > 100 µM | TGI (HL-60(TB) leukemia): > 100 µM | GI50 (NCI-H522 lung): > 100 µM | TGI (NCI-H522 lung): > 100 µM | GI50 (SW-620 colon): > 100 µM | TGI (SW-620 colon): > 100 µM | GI50 (OVCAR-5 ovarian): > 100 µM | TGI (OVCAR-5 ovarian): > 100 µM | GI50 (COLO 205 colon): > 100 µM | TGI (COLO 205 colon): > 100 µM | GI50 (HS 578T breast): > 100 µM | TGI (HS 578T breast): > 100 µM | GI50 (NCI-H226 lung): > 100 µM | TGI (NCI-H226 lung): > 100 µM | GI50 (SNB-19 CNS): > 100 µM | TGI (SNB-19 CNS): > 100 µM

C[CH2][Sn]1([CH2]C)[O]C2C(O)OC(CO)C(O)C2[O]1 (stereo not given)
GI50 (HCT-15 colon): 60.3 µM | TGI (HCT-15 colon): > 100 µM | GI50 (OVCAR-8 ovarian): > 100 µM | TGI (OVCAR-8 ovarian): > 100 µM | GI50 (HL-60(TB) leukemia): 16.5 µM | TGI (HL-60(TB) leukemia): 39.1 µM | GI50 (NCI-H522 lung): 3.95 µM | TGI (NCI-H522 lung): 22.2 µM | GI50 (SW-620 colon): 20.2 µM | TGI (SW-620 colon): 46.4 µM | GI50 (OVCAR-5 ovarian): 20.8 µM | TGI (OVCAR-5 ovarian): 47.3 µM | GI50 (COLO 205 colon): 35.2 µM | TGI (COLO 205 colon): > 100 µM | GI50 (HS 578T breast): 25.9 µM | TGI (HS 578T breast): > 100 µM | GI50 (NCI-H226 lung): 13.2 µM | TGI (NCI-H226 lung): 26.1 µM | GI50 (SNB-19 CNS): 50.5 µM | TGI (SNB-19 CNS): > 100 µM

Nc1nn(C(=O)Nc2ccc(Cc3ccccc3)cc2)c2ccc(Cl)cc12
GI50 (HCT-15 colon): 0.0821 µM | TGI (HCT-15 colon): > 100 µM | GI50 (OVCAR-8 ovarian): 14.8 µM | TGI (OVCAR-8 ovarian): > 100 µM | GI50 (HL-60(TB) leukemia): 6.57 µM | TGI (HL-60(TB) leukemia): 44.6 µM | GI50 (NCI-H522 lung): 7.96 µM | TGI (NCI-H522 lung): > 100 µM | GI50 (SW-620 colon): 0.724 µM | TGI (SW-620 colon): 54.3 µM | GI50 (OVCAR-5 ovarian): 22.7 µM | TGI (OVCAR-5 ovarian): > 100 µM | GI50 (COLO 205 colon): 1.92 µM | TGI (COLO 205 colon): 28.9 µM | GI50 (HS 578T breast): 14.4 µM | TGI (HS 578T breast): 44.3 µM | GI50 (NCI-H226 lung): 13.5 µM | TGI (NCI-H226 lung): > 81.7 µM | GI50 (SNB-19 CNS): 18.1 µM | TGI (SNB-19 CNS): 51.7 µM

Clc1ccc(N/N=C/c2ccccn2)nc1
GI50 (HCT-15 colon): 0.333 µM | TGI (HCT-15 colon): > 100 µM | GI50 (OVCAR-8 ovarian): 0.425 µM | TGI (OVCAR-8 ovarian): > 100 µM | GI50 (HL-60(TB) leukemia): 0.318 µM | TGI (HL-60(TB) leukemia): 1.31 µM | GI50 (NCI-H522 lung): 0.323 µM | TGI (NCI-H522 lung): 37.4 µM | GI50 (SW-620 colon): 0.468 µM | TGI (SW-620 colon): > 100 µM | GI50 (OVCAR-5 ovarian): 0.433 µM | TGI (OVCAR-5 ovarian): > 94.3 µM | GI50 (COLO 205 colon): 0.342 µM | TGI (COLO 205 colon): 18.6 µM | GI50 (HS 578T breast): 3.39 µM | TGI (HS 578T breast): > 100 µM | GI50 (NCI-H226 lung): 0.401 µM | TGI (NCI-H226 lung): > 100 µM | GI50 (SNB-19 CNS): 0.674 µM | TGI (SNB-19 CNS): > 100 µM

CCOc1ccc(/C=N/Nc2cc(C)nc3ccc(Cl)cc23)cc1
GI50 (HCT-15 colon): 1.55 µM | TGI (HCT-15 colon): 2.94 µM | GI50 (OVCAR-8 ovarian): 2.34 µM | TGI (OVCAR-8 ovarian): 5.19 µM | GI50 (HL-60(TB) leukemia): 1.86 µM | TGI (HL-60(TB) leukemia): 3.73 µM | GI50 (NCI-H522 lung): 1.73 µM | TGI (NCI-H522 lung): 3.29 µM | GI50 (SW-620 colon): 1.97 µM | TGI (SW-620 colon): 4.02 µM | GI50 (OVCAR-5 ovarian): 1.97 µM | TGI (OVCAR-5 ovarian): 3.5 µM | GI50 (COLO 205 colon): 1.91 µM | TGI (COLO 205 colon): 3.47 µM | GI50 (HS 578T breast): 2.15 µM | TGI (HS 578T breast): 4.67 µM | GI50 (NCI-H226 lung): 1.85 µM | TGI (NCI-H226 lung): 3.62 µM | GI50 (SNB-19 CNS): 2.37 µM | TGI (SNB-19 CNS): 5.07 µM

Oc1ccc(Cl)cc1Cc1cc(Cl)cc(Cc2cc(Cl)ccc2O)c1O
TGI (HCT-15 colon): 12.2 µM | TGI (OVCAR-8 ovarian): 16.8 µM | TGI (HL-60(TB) leukemia): 8.38 µM | TGI (NCI-H522 lung): 3.32 µM | TGI (SW-620 colon): 13.5 µM | TGI (OVCAR-5 ovarian): 12.2 µM | TGI (COLO 205 colon): 3.25 µM | TGI (HS 578T breast): 7.71 µM | TGI (NCI-H226 lung): 7.07 µM | TGI (SNB-19 CNS): 14.6 µM
